This is an account of results in patent US7385086B2 (priority 1997, dated 2008).

The subject of data set [1] is M. tuberculosis (strain H37Rv). Nature of the data set: MIC against M. tuberculosis strain H37Rv. The data set is classed as cell-based. Particulars: Mycobacterium tuberculosis.
Data set [2] relates to M. avium-intracellulare. Nature of the data set: MIC / growth inhibition against M. avium-intracellulare. The data set is classed as cell-based, Mycobacterium avium-intracellulare.
The subject of data set [3] is M. bovis BCG. Nature of the data set: microbe, parasite or virus in culture. The data set is classed as cell-based. Conditions: Mycobacterium tuberculosis variant bovis BCG.
Data set [4] has as its system mycolic acid synthesis in M. bovis BCG. It is filed as cell-based, Mycobacterium bovis. Particulars: M. bovis BCG in the presence of III-50.
Data set [5] deals with M. bovis BCG cell wall. The data set is classed as cell-based, Mycobacterium bovis. Particulars: dividing M. bovis BCG in the presence of III-50.
Data set [6] deals with mycolic acid synthesis in M. avium-intracellulare. Nature of the data set: Metabolic labeling, two-dimensional TLC of mycolic acids, M. avium-intracellulare. It is filed as cell-based, Mycobacterium avium-intracellulare. Conditions: M. avium-intracellulare cultures treated with 12.5 μg/ml.
Where [7] appears, read: M. tuberculosis strain H37Rv, in vitro, read-out: MIC MTB.
Setting [8] is: M. avium-intracellulare, routinely isoniazid resistant.
Setting [9] is: Mycobacterium avium-intracellulare, M. avium-intracellulare, in vitro, read-out: MIC MAI.

A word on the melting point: it is the temperature of the solid-liquid transition.

Values after ≈ are worked out from the molar mass of the structure shown. Where two headings read alike, the source gives them in different places.

As for `CCCCCCCCCCS(=O)(=O)CCC(N)=O` [DI-59], the MIC in data set [1] (setting [7]) was more than 25 µg/mL.
For the compound `CCCCCCCCCCS(=O)(=O)/C=C/C(N)=O` [JRG-I-89-2], in data set [1] (setting [7]), the MIC amounted to 12.5 µg/mL (≈ 45.4 µM).
For `NNC(=O)c1ccncc1` [isoniazid, reference compound], the isoniazid resistance level in data set [2] (setting [8]) was more than 2.5 µg/mL.
For the compound `CCCCCCCCCC[S+]([O-])CC(N)=O` (stereo not shown) [SI-46], in data set [1] (setting [7]), the MIC was 6.25 µg/mL (≈ 25.3 µM).
With `CCCCCCCCCCS(=O)(=O)/C=C\C(N)=O` [JRG-I-89-1], in data set [1] (setting [7]), the MIC stood at 25 µg/mL (≈ 90.8 µM).
As to `CCCCCCCCS(=O)(=O)CC(=O)OCc1ccccc1` [HIII-206b], the MIC in data set [1] (setting [7]) turned out to be 12.5 µg/mL (≈ 38.3 µM).
Regarding `CCCCCCCCCCS(=O)(=O)CC(=O)NCC(O)CO` (stereo not shown) [SI-48], the MIC in data set [1] (setting [7]) was more than 25 µg/mL.
As to `CCCCCCCCCCS(=O)(=O)CC(N)=O` [SI-73], the MIC turned out to be 3.12 µg/mL (≈ 11.8 µM) in data set [1] (H37RV); 3.12 µg/mL (≈ 11.8 µM) in data set [1] (setting [7]); 12.5 µg/mL (≈ 47.5 µM) in data set [2] (setting [9]); 12.50 µg/mL (≈ 47.5 µM) in data set [2] (dose-response curves, M. avium-intracellular).
Regarding `CCCCCCCC[S+]([O-])CC(=O)OCc1ccccc1` (stereo not shown) [HIII-206a], in data set [1] (setting [7]), the MIC was determined as 6.25 µg/mL (≈ 20.1 µM).
Consider `CCCCCCCC[S+]([O-])CC(=O)OC` (stereo not shown) [HIII-302], for which the MIC in data set [1] (setting [7]) is more than 25 µg/mL.
Take `CCCCCCCCCCS(=O)(=O)C=CC(N)=O` [JRG-I-89-3]: in data set [1] (setting [7]), the MIC came out at 6.25 µg/mL (≈ 22.7 µM).
For the compound `CCCCCCCCS(=O)(=O)NCC(=O)O` [HIII-56], the MIC in data set [1] (setting [7]) and in data set [3] (read-out: MIC BCG) was more than 25 µg/mL in each case.
In the case of `CC(C)CCCC(C)CCS(=O)(=O)CC(N)=O` (stereo not shown) [SI-52], in data set [1] (setting [7]), the MIC was 6.25 µg/mL (≈ 23.7 µM).
On to `CCCCCCCCCCS(=O)(=O)/C=C/C(=O)O` [JRG-I-43], for which, in data set [1] (setting [7]), the MIC is 50 µg/mL (≈ 181 µM).
`CCCCCCCCS(=O)(=O)CC(N)=O` [HIII-50, n-Octanesulphonylacetamide]: the “mycolic acids by phosphorimage of 2D TLC” value is “significantly reduced” in data set [4] and “undetectable” in data set [6]. In addition, the MIC amounted to 6.5 µg/mL (≈ 27.6 µM) in data set [1] (H37RV); 6.25 µg/mL (≈ 26.6 µM) in data set [1] (setting [7]); 6.25 µg/mL (≈ 26.6 µM) in data set [3]; 6.25 µg/mL (≈ 26.6 µM) in data set [3] (read-out: MIC BCG); 25 µg/mL (≈ 106 µM) in data set [2] (setting [9]). In addition, the “cell wall morphology in electron micrographs” value in data set [5] was “disruption of the cell wall”. In data set [2] (setting [8]), the growth inhibition entry is “inhibits”.
Turning to `CCCCCCCCCCS(=O)(=O)C=CC(=O)OC` (mixture of isomers) [JRG-I-31(mixture of cisand trans)], the MIC in data set [1] (setting [7]) came to 50 µg/mL.
`CCCCCCCCCCS(=O)(=O)/C=C/C(=O)OC` [JRG-I-31]: the melting point fell in the range of 62 to 63 °C.
On to `CCCCCCCCCCS(=O)(=O)CC(=O)NCCO` [SI-45], for which the MIC was 12.5 µg/mL (≈ 40.7 µM) in data set [1] (setting [7]) and 25 µg/mL (≈ 81.3 µM) in data set [3] (read-out: MIC BCG).
